Assay results as given in patent publication US10898582B2, “Bi-functional allosteric protein-drug molecules for targeted therapy” (UNIVERSITY OF UTAH RESEARCH FOUNDATION, priority 2014, dated 2021).

Columns and labels:
breast cancer cells = test: Short-term (4 hours) treatment of breast cancer cells, dose-dependent IC50; assay type: cell-based; settings: breast cancer cells exposed for 4 hours
Protocol: To examine whether the improved cellular uptake of 17-AAG by the PTD-ABD leads to enhanced efficacy of 17-AAG, breast cancer cells were exposed to 17-AAG or the PTD-ABD-17-AAG for 4 hours in a dose-dependent manner. […] Due to the facilitated uptake of 17-AAG bound to the PTD-ABD, the short-term treatment of 17-AAG at low concentrations can increase the cellular concentration of 17-AAG, which results in the enhanced anti-cancer efficacy of 17-AAG. Free 17-AAG was not sufficiently internalized into cells during the short incubation time because of the poor uptake kinetics of free 17-AAG.

[1] = system: MCF-7 breast cancer cells; test: Viability of MCF-7 breast cancer cells, dose-dependent IC50; assay type: cell-based
Protocol: To test the therapeutic efficacy of the formulation of PTD-ABD-17-AAG in MCF-7 breast cancer cells, the IC50 value was determined in a dose-dependent manner. The IC50 value is a measure of how effective a drug or therapeutic is and is defined as the concentration required to inhibit a biological process or component of a biological process (e.g., enzyme, cell, cell receptor) in half. The PTD-ABD-17-AAG was prepared as described above (Example 1) and administered to cancer cells. MCF-7 cells were exposed to one of the following formulations: 1) PTD-ABD-17-AAG; 2) 17-AAG; or 3) PTD-ABD.

MCF-7 cells = test: Uptake kinetics of FITC-GM into MCF-7 cells; assay type: cell-based; settings: 2 hours post-treatment
Protocol: Finally, 10 μg/ml of GM was sufficient to achieve internalization into 100% of the cell population when delivered by the PTD-ABD protein (FIG. 3c).

microtubules = settings: cited from earlier work

C=CCNC1=C2C[C@@H](C)C[C@H](OC)[C@H](O)[C@@H](C)/C=C(\C)[C@H](OC(N)=O)[C@@H](OC)/C=C\C=C(/C)C(=O)NC(=CC1=O)C2=O [17-AAG, 17-allylamino-17-demethoxygeldanamycin]
IC50 value (breast cancer cells): approximately 25 μg/ml
IC50 [1]: 15 µM

COC1=C2C[C@@H](C)C[C@H](OC)[C@H](O)[C@@H](C)/C=C(\C)[C@H](OC(N)=O)[C@@H](OC)/C=C\C=C(/C)C(=O)NC(=CC1=O)C2=O [GM, Geldanamycin]
cell population positive to FITC (GM internalized) (MCF-7 cells): 60%

CC(=O)O[C@H]1C(=O)[C@@]2(C)[C@H]([C@H](OC(=O)c3ccccc3)[C@]3(O)C[C@H](OC(=O)[C@H](O)[C@@H](NC(=O)c4ccccc4)c4ccccc4)C(C)=C1C3(C)C)[C@]1(OC(C)=O)CO[C@@H]1C[C@@H]2O [PTX, paclitaxel]
binding affinity Ka to microtubules (microtubules): ~6e+07 M⁻¹
